Data on 24 compounds can be found in patent US10953012B2, “Heterocyclic compounds for the inhibition of pask” (BioEnergenix LLC, priority 2011, dated 2021).

In test [1] the target is PASK (UniProt #Q96RG2; residues 879-1323) (Homo sapiens (Human), UniProt Q96RG2). Briefly: PASK ATP Radiochemical Assay. It is filed as biochemical. To be noted: 33P-ATP radiochemical assay; read-out: IC50 Kinase Domain. On the procedure: PASK ATP Radiochemical Assay Purified PASK (UniProt #Q96RG2; human recombinant N-terminal GST tagged construct, residues 879-1323) from insect cells (final concentration 5 nM) is added to freshly prepared Base Reaction Buffer containing 20 mM HEPES (pH 7.5), 10 mM MgCl2, 1 mM EGTA, 0.02% Brij35, 0.02 mg/ml BSA, 0.1 mM Na3VO4, 2 mM DTT, 1% DMSO and Myelin Basic Protein (20 μM final). Test compounds in DMSO are then added and the mixture, followed by delivery of ^33P-ATP (specific activity 0.01 μCi/μl final) to initiate the reaction. The kinase reaction is incubated for 120 min at room temperature. The entire reaction mixture is washed through onto a P81 Phosphocellulose paper and washed three times for 10 minutes in 75 mM phosphoric acid and once in methanol prior to drying and scintillation counting.
Sequence of PASK (UniProt #Q96RG2; residues 879-1323) (Homo sapiens (Human), UniProt Q96RG2) (Q96RG2 879-1323): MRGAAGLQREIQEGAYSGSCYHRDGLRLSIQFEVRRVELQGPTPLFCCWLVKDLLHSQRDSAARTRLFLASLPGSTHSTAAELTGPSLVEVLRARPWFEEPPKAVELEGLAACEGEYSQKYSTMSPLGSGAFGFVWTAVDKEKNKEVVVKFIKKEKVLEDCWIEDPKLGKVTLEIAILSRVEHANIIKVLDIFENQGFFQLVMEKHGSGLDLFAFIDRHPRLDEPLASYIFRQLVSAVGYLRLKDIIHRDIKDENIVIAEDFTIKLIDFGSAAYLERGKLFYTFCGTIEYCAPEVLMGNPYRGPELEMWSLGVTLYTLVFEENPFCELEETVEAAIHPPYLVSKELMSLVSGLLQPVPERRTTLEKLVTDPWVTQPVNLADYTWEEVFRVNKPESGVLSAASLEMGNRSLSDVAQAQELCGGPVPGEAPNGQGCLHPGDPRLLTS

Test [2] deals with PASK (Homo sapiens (Human), UniProt Q96RG2). As to the kind of experiment: PAS Kinase FRET Assay. The note with it: TR-FRET assay; read-out: IC50 Kinase Domain. It is filed as biochemical. Summed up: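 TR-FRET read-out (665/615 nm) of ULight-peptide phosphorylation by PASK, detected with Eu-labelled anti-phospho antibody. Compound, kinase and substrate/ATP reacted 2 h at 25 °C in the dark in 50 mM HEPES, 10 mM MgCl2, 1 mM EGTA, 0.01% Tween-20, 2 mM DTT. Eleven-point dilution series made at 4× final.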
Sequence of PASK (Homo sapiens (Human), UniProt Q96RG2) (Q96RG2 999-1251): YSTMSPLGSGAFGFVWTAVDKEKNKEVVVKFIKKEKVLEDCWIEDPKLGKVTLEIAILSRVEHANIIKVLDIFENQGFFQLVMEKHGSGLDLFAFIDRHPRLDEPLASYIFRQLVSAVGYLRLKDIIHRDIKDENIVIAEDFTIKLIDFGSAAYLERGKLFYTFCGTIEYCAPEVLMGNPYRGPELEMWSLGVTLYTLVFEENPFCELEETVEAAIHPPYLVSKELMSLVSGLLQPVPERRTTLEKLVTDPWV
In general terms: Time-resolved FRET reads energy transfer from a long-lived donor to a nearby acceptor.

The next test concerns the target CK2a2 (Homo sapiens (Human), UniProt P19784). As to the kind of experiment: Biochemical Assay for CK2 Activity. To be noted: 33P-ATP radiochemical assay; read-out: IC50 CK2 a2. On the procedure:
Biochemical Assay for CK2 Activity
Purified CK2a2 (NP_001887; human full-length protein, GST tagged) from insect cells (final concentration 1.2 nM) is added to freshly prepared Base Reaction Buffer containing 20 mM Hepes (pH 7.5), 10 mM MgCl2, 1 mM EGTA, 0.02% Brij35, 0.02 mg/ml BSA, 0.1 mM Na3VO4, 2 mM DTT, 1% DMSO and CK2 sub [RRRDDDSDDD] (20 μM final). Test compounds in DMSO are then added and the mixture, followed by delivery of ^33P-ATP (specific activity 0.01 μCi/μl final) to initiate the reaction. The kinase reaction is incubated for 120 min at room temperature. The entire reaction mixture is washed through onto a P81 Phosphocellulose paper and washed three times for 10 minutes in 75 mM phosphoric acid and once in methanol prior to drying and scintillation counting.

As usually defined, the IC50 is the concentration needed to halve the response being measured.

The structures appear in SMILES notation. Some results are limits rather than exact numbers.

Sequence of CK2a2 (P19784 whole entry): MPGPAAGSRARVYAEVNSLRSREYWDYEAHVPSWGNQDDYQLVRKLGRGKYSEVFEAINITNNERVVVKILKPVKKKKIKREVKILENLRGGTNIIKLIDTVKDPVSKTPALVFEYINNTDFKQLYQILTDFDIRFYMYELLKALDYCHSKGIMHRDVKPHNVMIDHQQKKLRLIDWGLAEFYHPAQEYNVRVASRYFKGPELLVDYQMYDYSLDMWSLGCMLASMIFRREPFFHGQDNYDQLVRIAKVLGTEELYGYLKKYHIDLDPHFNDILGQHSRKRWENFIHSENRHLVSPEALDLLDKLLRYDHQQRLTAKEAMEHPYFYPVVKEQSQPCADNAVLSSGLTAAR

As for `CCCc1c(C)nn2c(=O)cc(-c3ccc(OC)cc3)[nH]c12` [Example 71, 5-(4-Methoxyphenyl)-2-methyl-3-propylpyrazolo[1,5-a]pyrimidin-7(4H)-one], the concentration for half-maximal inhibition (IC50) on PASK [1] was no more than 10 µM; on PASK [2] it was no more than 10 µM; at CK2a2, no less than 10 µM.
Consider `COc1ccc(-c2cc(=O)n3ncc(-c4cccnc4)c3[nH]2)cc1` [Example 72, 5-(4-Methoxyphenyl)-3-(pyridin-3-yl)pyrazolo[1,5-a]pyrimidin-7(4H)-one], for which the IC50 at PASK [1], at PASK [2] and at CK2a2 was no more than 10 µM each time.
Take `Cc1nn2c(=O)cc(-c3ccc4ncccc4c3)[nH]c2c1Cc1ccccc1` [Example 73, 3-Benzyl-2-methyl-5-(quinolin-6-yl)pyrazolo[1,5-a]pyrimidin-7(4H)-one]: the IC50 at PASK [1], at PASK [2] and at CK2a2 was no more than 10 µM each time.
With `Cc1nn2c(=O)cc(-c3ccc4c(c3)OCO4)[nH]c2c1Cc1cccc(Cl)c1` [Example 75, 3-(3-Chlorobenzyl)-5-(benzo[d][1,3]dioxol-5-yl)-2-methylpyrazolo[1,5-a]pyrimidin-7(4H)-one], the 50% inhibitory concentration (IC50) at PASK [1], on PASK [2] and at CK2a2 was no more than 10 µM each time.
For `Cc1nn2c(=O)cc(-c3ccc4c(c3)OCO4)[nH]c2c1Cc1ccc(Cl)cc1` [Example 76, 3-(4-Chlorobenzyl)-5-(benzo[d][1,3]dioxol-5-yl)-2-methylpyrazolo[1,5-a]pyrimidin-7(4H)-one], the IC50 at PASK [1], on PASK [2] and on CK2a2 was no more than 10 µM each time.
Take `Cc1nn2c(=O)cc(-c3ccc4c(c3)OCCO4)[nH]c2c1-c1ccc(F)cc1` [Example 81, 5-(2,3-Dihydrobenzo[b][1,4]dioxin-6-yl)-3-(4-fluorophenyl)-2-methylpyrazolo[1,5-a]pyrimidin-7(4H)-one]: the 50% inhibitory concentration (IC50) at PASK [1], at PASK [2] and on CK2a2 was no more than 10 µM in each case.
With `COc1cccc(-c2cnn3c(=O)cc(-c4ccc5c(c4)OCCO5)[nH]c23)c1` [Example 92, 5-(2,3-Dihydrobenzo[b][1,4]dioxin-6-yl)-3-(3-methoxyphenyl)pyrazolo[1,5-a]pyrimidin-7(4H)-one], the half-maximal inhibitory concentration (IC50) on PASK [1], on PASK [2] and on CK2a2 was no more than 10 µM each time.
As for `O=c1cc(-c2ccc3c(c2)CCO3)[nH]c2c(-c3ccccn3)cnn12` [Example 96, 5-(2,3-Dihydrobenzofuran-5-yl)-3-(pyridin-2-yl)pyrazolo[1,5-a]pyrimidin-7(4H)-one], the IC50 on PASK [1], on PASK [2] and at CK2a2 was no more than 10 µM each time.
As to `O=c1cc(-c2ccc3occc3c2)[nH]c2c(-c3ccccc3)cnn12` [Example 97, 5-(Benzofuran-5-yl)-3-phenylpyrazolo[1,5-a]pyrimidin-7(4H)-one], the 50% inhibitory concentration (IC50) on PASK [1], on PASK [2] and on CK2a2 was no more than 10 µM in each case.
`O=c1cc(-c2ccc3c(c2)CCO3)[nH]c2c(-c3ccccc3)cnn12` [Example 98, 5-(2,3-Dihydrobenzofuran-5-yl)-3-phenylpyrazolo[1,5-a]pyrimidin-7(4H)-one]: the half-maximal inhibitory concentration (IC50) at PASK [1], on PASK [2] and at CK2a2 was no more than 10 µM each time.
Turning to `O=c1cc(-c2ccc3c(c2)CCO3)[nH]c2c(-c3cccnc3)cnn12` [Example 99, 5-(2,3-Dihydrobenzofuran-5-yl)-3-(pyridin-3-yl)pyrazolo[1,5-a]pyrimidin-7(4H)-one], the IC50 on PASK [1], at PASK [2] and on CK2a2 was no more than 10 µM each time.
For the compound `O=c1cc(-c2ccc3c(c2)OCO3)[nH]c2c(-c3cccnc3)c(O)nn12` [Example 100, 5-(Benzo[d][1,3]dioxol-5-yl)-2-hydroxy-3-(pyridin-3-yl)pyrazolo[1,5-a]pyrimidin-7(4H)-one], the half-maximal inhibitory concentration (IC50) at PASK [1], at PASK [2] and on CK2a2 was no more than 10 µM in each case.
For the compound `O=c1cc(-c2ccc3c(c2)OCCO3)[nH]c2c(-c3ccccn3)c(O)nn12` [Example 102, 5-(2,3-Dihydrobenzo[b][1,4]dioxin-6-yl)-2-hydroxy-3-(pyridin-2-yl)pyrazolo[1,5-a]pyrimidin-7(4H)-one], the half-maximal inhibitory concentration (IC50) on PASK [1], at PASK [2] and on CK2a2 was no more than 10 µM each time.
On to `O=c1cc(-c2ccc3c(c2)OCCO3)[nH]c2c(-c3ccccc3)c(O)nn12` [Example 103, 5-(2,3-Dihydrobenzo[b][1,4]dioxin-6-yl)-2-hydroxy-3-phenylpyrazolo[1,5-a]pyrimidin-7(4H)-one], for which the IC50 on PASK [1], on PASK [2] and at CK2a2 was no more than 10 µM throughout.
With `O=C(c1cnn2c(=O)cc(-c3ccc4c(c3)OCCO4)[nH]c12)N1CCOCC1` [Example 106, 5-(2,3-Dihydrobenzo[b][1,4]dioxin-6-yl)-3-(morpholine-4-carbonyl)pyrazolo[1,5-a]pyrimidin-7(4H)-one], the half-inhibitory concentration (IC50) at PASK [1], on PASK [2] and at CK2a2 was no more than 10 µM in each case.
`CN1CCN(C(=O)c2cnn3c(=O)cc(-c4ccc5c(c4)OCCO5)[nH]c23)CC1` [Example 107, 5-(2,3-Dihydrobenzo[b][1,4]dioxin-6-yl)-3-(4-methylpiperazine-1-carbonyl)pyrazolo[1,5-a]pyrimidin-7(4H)-one]: the 50% inhibitory concentration (IC50) at PASK [1], at PASK [2] and on CK2a2 was no more than 10 µM each time.
Turning to `O=C(NCc1ccccc1)c1cnn2c(=O)cc(-c3ccc4c(c3)OCCO4)[nH]c12` [Example 108, N-Benzyl-5-(2,3-dihydrobenzo[b][1,4]dioxin-6-yl)-7-oxo-4,7-dihydropyrazolo[1,5-a]pyrimidine-3-carboxamide], the IC50 on PASK [1], on PASK [2] and on CK2a2 was no more than 10 µM each time.
For the compound `O=c1cc(-c2ccc(Cl)cc2)[nH]c2c(-c3ccccn3)cnn12` [Example 109, 5-(4-Chlorophenyl)-3-(pyridin-2-yl)pyrazolo[1,5-a]pyrimidin-7(4H)-one], the IC50 at PASK [1], at PASK [2] and on CK2a2 was no more than 10 µM each time.
In the case of `COc1ccc(-c2cc(=O)n3ncc(-c4ccccn4)c3[nH]2)c(OC)c1` [Example 110, 5-(2,4-Dimethoxyphenyl)-3-(pyridin-2-yl)pyrazolo[1,5-a]pyrimidin-7(4H)-one], the 50% inhibitory concentration (IC50) at PASK [1], on PASK [2] and at CK2a2 was no more than 10 µM throughout.
With `COc1ccc(-c2cc(=O)n3ncc(-c4ccccn4)c3[nH]2)cc1OC` [Example 111, 5-(3,4-Dimethoxyphenyl)-3-(pyridin-2-yl)pyrazolo[1,5-a]pyrimidin-7(4H)-one], the IC50 on PASK [1], on PASK [2] and on CK2a2 was no more than 10 µM throughout.
Turning to `N#Cc1cnn2c(=O)cc(-c3ccc4c(c3)OCCO4)[nH]c12` [Example 113, 5-(2,3-Dihydrobenzo[b][1,4]dioxin-6-yl)-7-oxo-4,7-dihydropyrazolo[1,5-a]pyrimidine-3-carbonitrile], the IC50 on PASK [1], at PASK [2] and at CK2a2 was no more than 10 µM throughout.
As to `NC(=O)c1cnn2c(=O)cc(-c3ccc4c(c3)OCCO4)[nH]c12` [Example 114, 5-(2,3-Dihydrobenzo[b][1,4]dioxin-6-yl)-7-oxo-4,7-dihydropyrazolo[1,5-a]pyrimidine-3-carboxamide], the 50% inhibitory concentration (IC50) on PASK [1], on PASK [2] and at CK2a2 was no more than 10 µM each time.
On to `O=c1c2c([nH]c3c(-c4ccccn4)cnn13)-c1ccccc1CC2` [Example 116, 11-(Pyridin-2-yl)-5,6-dihydrobenzo[h]pyrazolo[5,1-b]quinazolin-7(12H)-one], for which the IC50 at PASK [1], at PASK [2] and at CK2a2 was no more than 10 µM throughout.
For `O=c1cc(-c2ccc3c(c2)OCCO3)[nH]c2c(-c3ccccc3)c(C(F)(F)F)nn12` [Example 117, 5-(2,3-Dihydrobenzo[b][1,4]dioxin-6-yl)-3-phenyl-2-(trifluoromethyl)pyrazolo[1,5-a]pyrimidin-7(4H)-one], the IC50 at PASK [1], at PASK [2] and at CK2a2 was no more than 10 µM each time.
